Source: US6127519A, “Calcitonin derivatives” (Tsumura & Co., priority 1990, dated 2000)
Numbered stars: 1 amine (or outer) side, 2 acyl side, 3 side chain; on linkers, the order of the positions; unused ones are H or OH. Bridge positions count the residues as written; N and C are the ends. Peptide text beside a SMILES is read from it. Suc = O=C(CCC(=O)[*:2])[*:1]

System: calcium concentration in the serum
Experiment: Test 1: reduction of calcium level in serum after tail vein administration to rats
Format: in vivo, rats of the Wistar strain
Settings: 1 ml/kg tail vein, female Wistar rats
Procedure: Six-weeks-old female rats of the Wistar strain (each group consisting of 4 rats) were used as the test animal, and the peptides of the present invention obtained in the examples given hereinafter were tested at concentrations adjusted with a 1% aqueous solution of sodium acetate (pH 4,0) to which 0.1% bovine serum albumin (BSA) was added. The solution was adjusted to a concentration of 166 μg/ml 830 ng/ml or 83 ng/ml and administered with the tail vein in an amount of 1 ml/kg. The back of the rat was fixed and blood was collected just before the administration, and at predetermined intervals after the administration, from the neck vein. The amount of blood collected each time was 0.3 ml. The sampled blood was subjected to centrifugal separation at 3500 rpm for 20 minutes to separate serum and the calcium content in the separated serum was measured by TBA-380 (supplied by Toshiba) using a Wako calcium-measuring kit (o-cpc method), and the ratio of reduction of the calcium concentration in the serum was determined.

[1] = concentration 830 ng/ml, 0 hour (just before administration)
[2] = concentration 830 ng/ml, 1 hour
[3] = concentration 830 ng/ml, 2 hours
[4] = concentration 830 ng/ml, 4 hours
[5] = concentration 830 ng/ml, 6 hours
[6] = concentration 83 ng/ml, 0 hour (just before administration)
[7] = concentration 83 ng/ml, 2 hours
[8] = concentration 83 ng/ml, 4 hours
[9] = concentration 83 ng/ml, 6 hours

SMILES | Serum calcium level as percent of pre-dose baseline [1] | Serum calcium level as percent of pre-dose baseline [2] | Serum calcium level as percent of pre-dose baseline [3] | Serum calcium level as percent of pre-dose baseline [4] | Serum calcium level as percent of pre-dose baseline [5] | Serum calcium level as percent of pre-dose baseline [6] | Serum calcium level as percent of pre-dose baseline (concentration 83 ng/ml, 1 hour) | Serum calcium level as percent of pre-dose baseline [7] | Serum calcium level as percent of pre-dose baseline [8] | Serum calcium level as percent of pre-dose baseline [9]
CC[C@H](C)[C@H](NC(=O)[C@H](C)NC(=O)[C@@H](NC(=O)[C@H](CCC(N)=O)NC(=O)[C@@H]1CCCN1C(=O)[C@H](Cc1ccc(O)cc1)NC(=O)[C@@H](NC(=O)[C@H](CCC(N)=O)NC(=O)CNC(=O)[C@H](CCCCN)NC(=O)[C@H](Cc1c[nH]cn1)NC(=O)[C@H](CC(C)C)NC(=O)[C@H](CCC(=O)O)NC(=O)[C@H](CCC(N)=O)NC(=O)[C@H](CO)NC(=O)[C@H](CC(C)C)NC(=O)[C@H](CCCCN)NC(=O)CNC(=O)[C@H](CC(C)C)NC(=O)[C@H](CCSC)NC(=O)[C@@H]1CSSC[C@H](N)C(=O)NCC(=O)N[C@@H](CC(N)=O)C(=O)N[C@@H](CC(C)C)C(=O)N[C@@H](CO)C(=O)N[C@@H]([C@@H](C)O)C(=O)N1)[C@@H](C)O)[C@@H](C)O)C(=O)NCC(=O)N[C@@H](CO)C(=O)NCC(=O)N[C@H](C(=O)N1CCC[C@H]1C(N)=O)[C@@H](C)O [Peptide No. 8] (H-CGNLSTCMLGKLSQELHKGQTYPQTAIGSGTP-NH2; disulfide 1-7) | 100.0% | 76.6% | 78.2% | 99.7% | 96.3% |  |  |  |  | 
CC[C@H](C)[C@H](NC(=O)[C@H](C)NC(=O)[C@@H](NC(=O)[C@H](CCC(N)=O)NC(=O)[C@@H]1CCCN1C(=O)[C@H](Cc1ccc(O)cc1)NC(=O)[C@@H](NC(=O)[C@H](CCC(N)=O)NC(=O)[C@H](CC(C)C)NC(=O)[C@H](CCCCN)NC(=O)[C@H](Cc1c[nH]cn1)NC(=O)[C@H](CC(C)C)NC(=O)[C@H](CCC(=O)O)NC(=O)[C@H](CCC(N)=O)NC(=O)[C@H](CO)NC(=O)[C@H](CC(C)C)NC(=O)[C@H](CCCCN)NC(=O)CNC(=O)[C@H](CC(C)C)NC(=O)[C@@H]1CCCN1C(=O)[C@@H]1CSSC[C@H](N)C(=O)NCC(=O)N[C@@H](CC(N)=O)C(=O)N[C@@H](CC(C)C)C(=O)N[C@@H](CO)C(=O)N[C@@H]([C@@H](C)O)C(=O)N1)[C@@H](C)O)[C@@H](C)O)C(=O)NCC(=O)N[C@H](C(=O)NCC(=O)N[C@@H](C)C(=O)N1CCC[C@H]1C(N)=O)C(C)C [Peptide No. 12] (H-CGNLSTCPLGKLSQELHKLQTYPQTAIGVGAP-NH2; disulfide 1-7) | 109.0% | 77.0% | 86.8% | 85.8% | 88.0% | 100.0% | 88.0% | 92.4% | 83.4% | 84.0%
CC[C@H](C)[C@H](NC(=O)[C@H](C)NC(=O)[C@@H](NC(=O)[C@H](CCC(N)=O)NC(=O)[C@@H]1CCCN1C(=O)[C@H](Cc1ccc(O)cc1)NC(=O)[C@@H](NC(=O)[C@H](CCC(N)=O)NC(=O)CNC(=O)[C@H](CCCCN)NC(=O)[C@H](Cc1c[nH]cn1)NC(=O)[C@H](CC(C)C)NC(=O)[C@H](CCC(=O)O)NC(=O)[C@H](CCC(N)=O)NC(=O)[C@H](CO)NC(=O)[C@H](CC(C)C)NC(=O)[C@H](CCCCN)NC(=O)CNC(=O)[C@H](CC(C)C)NC(=O)[C@H](CCSC)NC(=O)[C@@H]1CSSC[C@H](N)C(=O)NCC(=O)N[C@@H](CC(N)=O)C(=O)N[C@@H](CC(C)C)C(=O)N[C@@H](CO)C(=O)N[C@@H]([C@@H](C)O)C(=O)N1)[C@@H](C)O)[C@@H](C)O)C(=O)NCC(=O)N[C@H](C(=O)NCC(=O)N[C@@H](C)C(=O)N1CCC[C@H]1C(N)=O)C(C)C [Peptide No. 4] (H-CGNLSTCMLGKLSQELHKGQTYPQTAIGVGAP-NH2; disulfide 1-7) | 100.0% | 90.5% | 92.0% | 95.5% | 86.7% |  |  |  |  | 
CC[C@H](C)[C@H](NC(=O)[C@H](C)NC(=O)[C@@H](NC(=O)[C@H](CCC(N)=O)NC(=O)[C@@H]1CCCN1C(=O)[C@H](Cc1ccc(O)cc1)NC(=O)[C@@H](NC(=O)[C@H](CCC(N)=O)NC(=O)[C@H](CC(C)C)NC(=O)[C@H](CCCCN)NC(=O)[C@H](Cc1c[nH]cn1)NC(=O)[C@H](CC(C)C)NC(=O)[C@H](CCC(=O)O)NC(=O)[C@H](CCC(N)=O)NC(=O)[C@H](CO)NC(=O)[C@H](CC(C)C)NC(=O)[C@H](CCCCN)NC(=O)CNC(=O)[C@H](CC(C)C)NC(=O)[C@H](CCSC)NC(=O)[C@@H]1CCCCNC(=O)C[C@H](N)C(=O)N[C@@H](CC(N)=O)C(=O)N[C@@H](CC(C)C)C(=O)N[C@@H](CO)C(=O)N[C@@H]([C@@H](C)O)C(=O)N1)[C@@H](C)O)[C@@H](C)O)C(=O)NCC(=O)N[C@H](C(=O)NCC(=O)N[C@@H](C)C(=O)N1CCC[C@H]1C(N)=O)C(C)C [Peptide No. 23] (H-DNLSTKMLGKLSQELHKLQTYPQTAIGVGAP-NH2; lactam 1-6) | 100.0% | 68.5% | 61.6% | 56.9% | 71.1% | 100.0% | 73.6% | 72.2% | 83.3% | 82.4%
CC[C@H](C)[C@H](NC(=O)[C@H](C)NC(=O)[C@@H](NC(=O)[C@H](CCC(N)=O)NC(=O)[C@@H]1CCCN1C(=O)[C@H](Cc1ccc(O)cc1)NC(=O)[C@@H](NC(=O)[C@H](CCC(N)=O)NC(=O)[C@H](CC(C)C)NC(=O)[C@H](CCCCN)NC(=O)[C@H](Cc1c[nH]cn1)NC(=O)[C@H](CC(C)C)NC(=O)[C@H](CCC(=O)O)NC(=O)[C@H](CCC(N)=O)NC(=O)[C@H](CO)NC(=O)[C@H](CC(C)C)NC(=O)[C@H](CCCCN)NC(=O)CNC(=O)[C@H](CC(C)C)NC(=O)[C@H](C)NC(=O)[C@@H]1CSSC[C@H](N)C(=O)NCC(=O)N[C@@H](CC(N)=O)C(=O)N[C@@H](CC(C)C)C(=O)N[C@@H](CO)C(=O)N[C@@H]([C@@H](C)O)C(=O)N1)[C@@H](C)O)[C@@H](C)O)C(=O)NCC(=O)N[C@H](C(=O)NCC(=O)N[C@@H](C)C(=O)N1CCC[C@H]1C(N)=O)C(C)C [Peptide No. 10] (H-CGNLSTCALGKLSQELHKLQTYPQTAIGVGAP-NH2; disulfide 1-7) | 100.0% | 70.2% | 65.4% | 76.1% | 84.2% | 100.0% | 68.7% | 77.9% | 90.6% | 81.6%
CC[C@H](C)[C@H](NC(=O)[C@H](C)NC(=O)[C@@H](NC(=O)[C@H](CCC(N)=O)NC(=O)[C@@H]1CCCN1C(=O)[C@H](Cc1ccc(O)cc1)NC(=O)[C@@H](NC(=O)[C@H](Cc1c[nH]cn1)NC(=O)[C@H](Cc1ccccc1)NC(=O)[C@H](CCCCN)NC(=O)[C@H](CC(N)=O)NC(=O)[C@H](CC(C)C)NC(=O)[C@H](CC(=O)O)NC(=O)[C@H](CCC(N)=O)NC(=O)[C@@H](NC(=O)[C@H](CC(C)C)NC(=O)[C@H](CCCCN)NC(=O)CNC(=O)[C@H](CC(C)C)NC(=O)[C@H](CC(C)C)NC(=O)[C@@H]1CCCCNC(=O)CCC(=O)N[C@@H](CC(N)=O)C(=O)N[C@@H](CC(C)C)C(=O)N[C@@H](CO)C(=O)N[C@@H]([C@@H](C)O)C(=O)N1)[C@@H](C)O)[C@@H](C)O)[C@@H](C)O)C(=O)NCC(=O)N[C@H](C(=O)NCC(=O)N[C@@H](C)C(=O)N1CCC[C@H]1C(N)=O)C(C)C [Peptide No. 33] (NLSTKLLGKLTQDLNKFHTYPQTAIGVGAP-NH2; linker N-5 via Suc) | 100.0% | 80.8% | 71.8% | 63.5% | 55.1% | 100.0% | 78.2% | 70.0% | 92.4% | 86.0%
